Results reported in US20180228853A1 (priority 2015, published 2018).
Read-outs that look alike come from different tables or passages of the source.

Assays:
[1] = test system: influenza or influenza-like illness; test: Randomized, single-blind clinical study, treatment of influenza or influenza-like illness in combination with Tamiflu; type: in vivo, human
Protocol: Subjects were randomized and placed on a treatment regimen of five days. Group C contained 29 subjects that received 75 mg of Tamiflu® (Oseltamivir Phosphate) in capsule form two times a day for five days. Group D contained 29 subjects that received 75 mg of Tamiflu® (Oseltamivir Phosphate) in capsule form and two 175 mg lozenges of HSRx 351 two times a day for 5 days.
Subjects were also instructed to record any adverse events.
Statistical Analysis/Results—A survival analysis was performed to compare over time the Influenza symptom functions of groups C and D. The time dependent event for which survival and hazard functions were calculated was the final data collection visit for each subject. A Generalized Linear Mixed Model was run to test the hypothesis of fewer adverse events in the combination treatment Group D versus Tamiflu® (Oseltamivir phosphate) only treatment groups C. Parameter estimates such as beta weights and R2 were evaluated along with a P value significance level set at 5%.

[2] = test system: flu and/or flu like symptoms; conditions: 10 day regimen, 30 subjects per group
[3] = test system: H1N1 virus strain A/PR/8/34; test: microbe, parasite or virus in culture; type: cell-based, Influenza A (H1N1) virus; conditions: MDCK cells
[4] = test system: H1N1 virus particles; test: Direct binding assay to H1N1 virus particles (DART TOF-MS); parameters: species or system Influenza A (H1N1) virus
Protocol: Further, direct binding of test biomarkers in HSRx 351 to influenza virus and hemagglutinin were evaluated using the methods described in Roscheck Jr 2009. […] The methodology used is described in Roschek Jr 2009.
Viral Particles—Briefly, H1N1 virus particles were incubated with HSRx 351 or synthetic biomarkers 6 or 7 analog, to allow binding of the compounds within HSRx 351. After incubation, unbound compounds were removed by washing the virus particles three times through a 100 kDa molecular weight cut off membrane filter (Amicon 100 kDa filter, Ultracel PL-100; Millipore Corp. Billerica, Mass.) with phosphate buffered saline (PBS). The virus particles were then collected and fixed in 100% EtOH. The fixed virus particles and the washed fractions containing the unbound chemicals were collected and analyzed directly by DART TOF-MS for comparison.

[5] = preliminary statistical results
[6] = Influenza A virus, read-out: IC50
[7] = Influenza A virus, read-out: IC50 (μg/mL)

Molecule: CCOC(=O)C1=C[C@@H](OC(CC)CC)[C@H](NC(C)=O)[C@@H](N)C1 [Tamiflu ®, Oseltamivir Phosphate]
- Adverse events attributed to study product ([1]; 29 subjects per group): 4 number of subjects
- At least one symptom worsened by end of study ([1]; 29 subjects per group): 6 number of subjects
- Multiple symptoms worsened by end of study ([1]; 29 subjects per group): 3 number of subjects
- Symptoms failed to improve by end of study ([1]; 29 subjects per group): 2 number of subjects
- Composite VAS assessment exceeding baseline VAS ([1]; five day treatment, preliminary results): baseline VAS = 126
- % Average Reduction, Aches and pains [1, 5]: 64.46%
- % Average Reduction, Composite [1, 5]: 63.83%
- % Average Reduction, Degree of coughing [1, 5]: 67.74%
- % Average Reduction, Fever reduction [1, 5]: 85.38%
- % Average Reduction, Frequency of coughing [1, 5]: 50.38%
- % Average Reduction, Mucus discharge in the respiratory tract [1, 5]: 54.63%
- % Average Reduction, Nasal congestion [1, 5]: 66.35%
- % Average Reduction, Quality of sleep [1, 5]: 57.89%
- medically related adverse events reported [2]: Five

Molecule: CCOC(=O)C1=C[C@@H](OC(CC)CC)[C@H](NC(C)=O)[C@@H](N)C1 [Oseltamivir, oseltamivir]
- IC50 [3, 6]: 0.32 µM
- IC50 [3, 7]: 0.1 µg/mL

Molecule: NC12CC3CC(CC(C3)C1)C2 [Amantadine, amantadine]
- IC50 [3, 6]: 27 µM
- IC50 [3, 7]: 4.1 µg/mL

Molecule: 3-Hydroxyflavonone [Biomarker 7 analog]
- IC50 (μg/mL) [3]: 2.8 and μg/mL
- IC50 ([3]; read-out: IC50): 8.7 µM
- binding to H1N1 virus particles (enrichment in the fixed virus samples over the washed fractions) [4]: bind H1N1 virus particles
